In patent publication US11999727B2 (Tango Therapeutics, Inc., priority 2020, dated 2024):
pIC50: −log10 of the molar value.

How the values were obtained:
PRMT5 [1] = target: T1, PRMT5 (Homo sapiens, UniProt O14744); test: PRMT5 biochemical IC50 assay with SAM as cofactor; settings: PRMT5, SAM as cofactor; read-out: SAM IC50
T1 construct: purchased Viva (custom protein)

PRMT5 [2] = target: T1, PRMT5; test: PRMT5 biochemical IC50 assay with no cofactor; settings: PRMT5, no cofactor
From the text: Table 1 indicates IC50 values (μM) against PRMT5 for exemplary compounds in the presence of SAM as cofactor, with no cofactor, and with MTA as cofactor, respectively (columns 4-6). […] Ki values can be calculated from the IC50 values as described in the Examples section. As detailed in the Examples section, for the assay performed in the presence of SAM, IC50=Ki×1.5 (Ki=IC50/1.5).

PRMT5 [3] = target: T1, PRMT5; test: PRMT5 biochemical IC50 assay with MTA as cofactor; settings: PRMT5, MTA as cofactor; read-out: MTA IC50
[4] = test system: HAP1 MTAP-intact cell line; test: SDMA in-cell western assay, HAP1 MTAP-intact; format: cell-based; settings: Homo sapiens, HAP1, SDMA in-cell western, HAP1 MTAP-intact; read-out: MTAP HAP1 intact IC50
Outline: (§1)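 IC50 values come from SDMA signal quantified by in-cell western in two HAP1 lines, one with native MTAP levels and one lacking MTAP.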

[5] = test system: HAP1 MTAP-deleted cell line; test: SDMA in-cell western assay, HAP1 MTAP-deleted; format: cell-based; settings: for pIC50: Homo sapiens, HAP1, SDMA in-cell western, HAP1 MTAP-deleted; for MTAP intact/deleted ratio: SDMA in-cell western
Outline: as §1

[6] = test system: HAP1 MTAP-deleted cell line; test: Viability assay, MTAP-deleted cell line; format: cell-based; settings: Homo sapiens, read-out: HAP1 MTAP deleted viability
From the text: Table 1 additionally indicates IC50 values in a viability assay for the MTAP-deleted cell line (column 10), indicating the effect of treatment with compound on cell survival.

[7] = read-out: No Cofactor/ rel IC50
[8] = read-out: HAP 1 MTAP deleted IC50
[9] = IC50 ratio HAP1 MTAP-intact / HAP1 MTAP-deleted
[10] = HAP1, viability, HAP1 MTAP-deleted cell line
[11] = HAP1, viability IC50, MTAP-deleted cell line
[12] = read-out: HAP1 MTAP deleted IC50
[13] = HAP1, viability assay, MTAP-deleted cell line
[14] = IC50 ratio HAP1 MTAP-intact vs HAP1 MTAP-deleted

T1 sequence (O14744 whole entry): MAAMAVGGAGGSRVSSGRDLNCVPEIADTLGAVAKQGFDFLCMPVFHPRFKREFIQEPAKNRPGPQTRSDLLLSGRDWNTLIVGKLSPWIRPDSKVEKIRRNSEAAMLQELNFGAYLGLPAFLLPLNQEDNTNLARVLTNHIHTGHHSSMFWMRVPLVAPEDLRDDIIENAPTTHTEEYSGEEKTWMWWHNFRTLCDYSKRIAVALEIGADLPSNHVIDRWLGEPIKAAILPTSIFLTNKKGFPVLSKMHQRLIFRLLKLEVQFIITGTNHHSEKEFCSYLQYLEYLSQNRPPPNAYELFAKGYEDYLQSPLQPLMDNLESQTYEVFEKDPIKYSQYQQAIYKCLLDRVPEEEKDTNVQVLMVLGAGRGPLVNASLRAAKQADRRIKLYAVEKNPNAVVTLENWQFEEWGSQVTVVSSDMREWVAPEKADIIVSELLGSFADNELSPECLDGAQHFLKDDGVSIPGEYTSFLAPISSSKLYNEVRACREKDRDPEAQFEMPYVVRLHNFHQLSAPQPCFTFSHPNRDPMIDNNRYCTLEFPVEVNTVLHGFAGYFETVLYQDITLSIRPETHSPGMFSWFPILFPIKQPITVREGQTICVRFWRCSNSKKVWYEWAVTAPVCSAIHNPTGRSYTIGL
T1 sequence (Q9BQA1 whole entry partner): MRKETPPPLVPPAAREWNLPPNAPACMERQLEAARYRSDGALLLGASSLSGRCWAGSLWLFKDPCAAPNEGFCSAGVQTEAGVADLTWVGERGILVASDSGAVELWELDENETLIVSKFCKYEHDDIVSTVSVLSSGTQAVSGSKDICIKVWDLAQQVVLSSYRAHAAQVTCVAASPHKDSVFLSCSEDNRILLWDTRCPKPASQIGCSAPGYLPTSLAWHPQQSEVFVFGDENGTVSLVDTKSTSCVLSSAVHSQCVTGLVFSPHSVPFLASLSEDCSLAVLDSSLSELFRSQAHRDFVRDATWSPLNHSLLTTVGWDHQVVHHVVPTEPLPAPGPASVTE

| pIC50 (PRMT5 [1]) | pIC50 (PRMT5 [2]; [7]) | pIC50 (PRMT5 [3]) | pIC50 [4] | pIC50 [5, 8] | pIC50 (PRMT5 [2]; read-out: No Cofactor/rel IC50) | pIC50 [5, 12] | Structure (SMILES) | MTAP intact/deleted ratio [5, 9] | pIC50 [6, 10] | pIC50 [6, 11] | pIC50 [6, 13] | MTAP intact/deleted ratio [5, 14] |
| --- | --- | --- | --- | --- | --- | --- | --- | --- | --- | --- | --- | --- |
| > 7.30 | > 7.30 | > 7.30 | > 7.00 | > 7.00 |  |  | CCc1cc(NC(=O)C(=O)N2C[C@@H](C)CC[C@@H]2c2ccc3nn(C4CCN(C)CC4)cc3c2)cnc1N [Compound 1321, N-(6-Amino-5-ethyl-3-pyridyl)-2-[(2R,5S)-5-methyl-2-[2-(1-methyl-4-piperidyl)indazol-5-yl]-1-piperidyl]-2-oxo-acetamide] | A (an IC50 ratio greater than or equal to 10 fold) | > 6.00 |  |  |  |
| 6.30 to 7.30 |  | > 7.30 | < 6.00 | 6.00 to 7.00 | 6.30 to 7.30 |  | Cc1ccc([C@@H]2CC[C@@H](C)CN2C(=O)C(=O)Nc2cncc(C(N)=O)c2)cn1 (single isomer, unassigned) [Compound 654] | A (an IC50 ratio greater than or equal to 10 fold) |  | 5.00 to 6.00 |  |  |
| 6.30 to 7.30 |  | > 7.30 | < 6.00 |  | 6.30 to 7.30 | 6.00 to 7.00 | Cc1cc(NC(=O)C(=O)N2CCCC[C@H]2C2CCCC2)cnc1N (single isomer, unassigned) [Compound 340] | A (an IC50 ratio greater than or equal to 10 fold) |  |  | 5.00 to 6.00 |  |
| < 6.30 |  | 6.30 to 7.30 | < 6.00 | < 6.00 | < 6.30 |  | Cc1cc(NC(=O)C(=O)N2C[C@@H](C)CC[C@@H]2c2cc(Cl)cc(Cl)c2)cnc1N (single isomer, unassigned) [Compound 660] | B (an IC50 ratio greater than or equal to 3 fold but lower than 10 fold) |  | < 5.00 |  |  |
| < 6.30 | < 6.30 | 6.30 to 7.30 | < 6.00 | 6.00 to 7.00 |  |  | C[C@@H]1CC[C@@H](c2ccnn2C)N(C(=O)C(=O)Nc2cncc(C(N)=O)c2)C1 (racemic) [Compound 81, 5-(2-(5-methyl-2-(1-methyl-1H-pyrazol-5-yl)piperidin-1-yl)-2-oxoacetamido)nicotinamide] | A (an IC50 ratio greater than or equal to 10 fold) |  |  | < 5.00 |  |
| 6.30 to 7.30 | > 7.30 | > 7.30 | > 7.00 | > 7.00 |  |  | CCc1cc(NC(=O)C(=O)N2C[C@@H](C)CC[C@@H]2c2ccc3nn([C@H]4CCCN(C)C4)cc3c2)cnc1N (single isomer, unassigned) [Compound 1271] | B (an IC50 ratio greater than or equal to 3 fold but lower than 10 fold) | > 6.00 |  |  |  |
| > 7.30 |  | > 7.30 | 6.00 to 7.00 |  | > 7.30 | > 7.00 | Cc1cc(NC(=O)C(=O)N2C[C@@H](C)CC[C@@H]2c2ccc3sc([C@@H]4CCN(C)C(C)(C)C4)nc3c2)cnc1C [Compound 1215, N-(5,6-dimethyl-3-pyridyl)-2-oxo-2-[(2R,5S)-5-methyl-2-[2-[(4R)-1,2,2-trimethyl-4-piperidyl]-1,3-benzothiazol-5-yl]-1-piperidyl]acetamide] |  |  |  | > 6.00 | A (an IC50 ratio greater than or equal to 10 fold) |
| 6.30 to 7.30 |  | 6.30 to 7.30 | < 6.00 |  | < 6.30 | < 6.00 | NC(=O)c1cncc(NC(=O)C(=O)N2CC[C@@H](O)C[C@H]2c2ccccc2)c1 (racemic) [Compound 185, 5-(2-(4-hydroxy-2-phenylpiperidin-1-yl)-2-oxoacetamido)nicotinamide] | C (an IC50 ratio of less than 3 fold) |  |  | < 5.00 |  |
| 6.30 to 7.30 |  | 6.30 to 7.30 | 6.00 to 7.00 | > 7.00 | > 7.30 |  | Cc1cc(NC(=O)C(=O)N2C[C@H](C)CC[C@H]2c2ccncc2)cnc1N (single isomer, unassigned) [Compound 592] | A (an IC50 ratio greater than or equal to 10 fold) |  | 5.00 to 6.00 |  |  |
| 6.30 to 7.30 | 6.30 to 7.30 | 6.30 to 7.30 | < 6.00 | < 6.00 |  |  | CNC(=O)c1cccc([C@H]2CC[C@H](C)CN2C(=O)C(=O)Nc2cncc(C)c2)c1 (racemic) [Compound 48, N-methyl-3-[(2R,5S)-5-methyl-1-[2-[(5-methyl-3-pyridyl)amino]-2-oxo-acetyl]-2-piperidyl]benzamide] | C (an IC50 ratio of less than 3 fold) |  |  | < 5.00 |  |
| < 6.30 | < 6.30 | < 6.30 | < 6.00 | < 6.00 |  |  | CC(=O)N1CCC(c2cccc(C3CCCCN3C(=O)C(=O)Nc3cncc(C)c3)c2)CC1 (single isomer, unassigned) [Compound 73] | C (an IC50 ratio of less than 3 fold) |  |  | < 5.00 |  |
| 6.30 to 7.30 |  | > 7.30 | > 7.00 |  | > 7.30 | > 7.00 | CCc1cc(NC(=O)C(=O)N2C[C@@H](C)CC[C@@H]2c2ccc3sc(C[C@@H](C)N(C)C)nc3c2)cnc1N [Compound 1198, N-(6-amino-5-ethylpyridin-3-yl)-2-((2R,5S)-2-(2-((R)-2-(dimethylamino)propyl)benzo[d]thiazol-5-yl)-5-methylpiperidin-1-yl)-2-oxoacetamide] |  |  |  | > 6.00 | A (an IC50 ratio greater than or equal to 10 fold) |
| 6.30 to 7.30 |  | > 7.30 | < 6.00 |  | 6.30 to 7.30 | 6.00 to 7.00 | C[C@@H]1CC[C@@H](c2ccc(Cn3ccnc3)cc2)N(C(=O)C(=O)Nc2cncc(C(N)=O)c2)C1 (racemic) [Compound 238, rac-5-{2-[(2R,5S)-2-{4-[(1H-Imidazol-1-yl)methyl]phenyl}-5-methylpiperidin-1-yl]-2-oxoacetamido}pyridine-3-carboxamide] | A (an IC50 ratio greater than or equal to 10 fold) |  |  | 5.00 to 6.00 |  |
| 6.30 to 7.30 |  | > 7.30 | > 7.00 | > 7.00 | > 7.30 |  | Cc1cc(NC(=O)C(=O)N2C[C@@H](C)CC[C@@H]2c2ccc3sc(N)nc3c2)cnc1N (single isomer, unassigned) [Compound 997] | B (an IC50 ratio greater than or equal to 3 fold but lower than 10 fold) |  |  | > 6.00 |  |
| 6.30 to 7.30 | > 7.30 | > 7.30 | 6.00 to 7.00 | > 7.00 |  |  | C[C@H]1CCC(c2ccc3sc(C4CCOCC4)nc3c2)N(C(=O)C(=O)Nc2cnc(N)c(C3CC3)c2)C1 (single isomer, unassigned) [Compound 1258] | A (an IC50 ratio greater than or equal to 10 fold) | > 6.00 |  |  |  |
| 6.30 to 7.30 |  | 6.30 to 7.30 | < 6.00 |  | < 6.30 | < 6.00 | CNC(=O)[C@@H]1CC[C@H](c2ccccc2)N(C(=O)C(=O)Nc2cnc(N)c(C)c2)C1 (racemic) [Compound 253, 1-(2-((6-amino-5-methylpyridin-3-yl)amino)-2-oxoacetyl)-N-methyl-6-phenylpiperidine-3-carboxamide] | C (an IC50 ratio of less than 3 fold) |  |  | < 5.00 |  |
| < 6.30 |  | < 6.30 | < 6.00 | < 6.00 | < 6.30 |  | C[C@@H]1CC[C@@H](c2ccncc2)N(C(=O)C(=O)Nc2cncc(C(N)=O)c2)C1 (single isomer, unassigned) [Compound 544, 5-(2-(5-methyl-2-(pyridin-4-yl)piperidin-1-yl)-2-oxoacetamido)nicotinamide] | C (an IC50 ratio of less than 3 fold) |  | < 5.00 |  |  |
| 6.30 to 7.30 |  | > 7.30 | < 6.00 |  | 6.30 to 7.30 | 6.00 to 7.00 | Cc1cc(NC(=O)C(=O)N2CCCC[C@H]2C(C)C)cnc1N (single isomer, unassigned) [Compound 192] | A (an IC50 ratio greater than or equal to 10 fold) |  |  | < 5.00 |  |
